How the values were obtained:
BALB/c mice [1] = assay: Inhibitory effect on eosinophilic infiltration into the abdominal cavity of OVA-immunized mice; assay type: in vivo; settings: for Ratio of Infiltrating Eosinophiles: cells collected two days after; for Inhibition: eosinophile ratio vs control
Experimental: Eight week-old male BALB/c mice were immunized with 1.6 mg of aluminium hydroxide gel (200 μl) adsorbing 100 μg of OVA by subcutaneous administration in the back. After 7 days, the mice received a booster injection of the same composition. Seven days after the booster administration, 10 μg of OVA in 200 μl of physiological saline was administered to the mice intraperitoneally. Two days after the intraperitoneal administration, abdominal cavity-infiltrating cells were collected with physiological saline. The total cell count and the eosinophile count in the collected cells were calculated by staining with Türk's solution and Hinkerman's solution, respectively. The test compound was administered orally 2 hours before the OVA intraperitoneal administration.

interleukin-4 (IL-4) = assay: IL-4 production from OVA-sensitized mouse spleen cells induced by antigen stimulation (ELISA); assay type: cell-based; settings: OVA-stimulated sensitized spleen cells, 3 days culture supernatant
Experimental: (§1) 1) Preparation of Sensitized Mouse Spleen Cells
(§2) Seven week-old male BALB/c mice were immunized with 4 mg of aluminium hydroxide gel (100 μl) adsorbing 10 μg of ovalbumin (OVA) by intraperitoneal administration. After 14 days, the mice received a booster injection of the same composition. Seven days after the booster administration, the spleen was removed and suspended in RPMI-1640 medium containing inactivated bovine fetal serum (10% v/v), 2-mercaptoethanol (50 μM), penicillin G (100 U/ml) and streptomycin (100 μg/ml) to prepare a cell suspension.
(§3) 2) Cytokine Production Induced by Antigen Stimulation
(§4) To the spleen cell suspension (5×10^6 cells/200 μl/well), 1/1000 volume of dimethyl sulfoxide solution dissolving OVA (0.5 mg/ml) and a test compound at a specific concentration was added. Then, the cells were cultured at 37° C. under 5% CO2. After 3 days, cytokines in the culture supernatant were determined by ELISA. Specifically, as a Th1 type cytokine, interferon-γ, (IFN-γ) was determined using Mouse IFN-γ ELISA Kit (Amersham). As Th2 type cytokines, interleukin-4 (IL-4) and interleukin-5 (IL-5) were determined with Mouse IL-4 ELISA Kit (Amersham) and Mouse IL-5 ELISA minikit (Endogen), respectively.

interleukin-5 (IL-5) = assay: IL-5 production from OVA-sensitized mouse spleen cells induced by antigen stimulation (ELISA); assay type: cell-based; settings: OVA-stimulated sensitized spleen cells, 3 days culture supernatant
Experimental: as §1, §2, §3, §4

interferon-γ (IFN-γ) = assay: IFN-γ production from OVA-sensitized mouse spleen cells induced by antigen stimulation (ELISA); assay type: cell-based; settings: OVA-stimulated sensitized spleen cells, 3 days culture supernatant
Experimental: as §1, §2, §3, §4

BALB/c mice [2] = assay: Mouse FITC-induced contact dermatitis model (auricule swelling), ointment; assay type: in vivo; settings: 10 μl on left auricule 2 hr before induction, 24 hr after induction
Experimental: As a control, Imiquimode (R-837; 4-amino-1-isobutyl-1H-imidazo[4,5-c]quinoline) disclosed in EP 145,340 A was used for comparison. Further, a steroid-type drug Rinderon™ ointment (Shionogi & Co.; 0.12% betamethasone valerate ointment) was used for reference.
The test compound was dissolved in an ointment base (PEG400:PEG4000=7:3) heated to about 80° C. to give a concentration of 1 mg/ml or 10 mg/ml, and then cooled to solid at room temperature to thereby prepare 0.1 or 1% macrogol ointment. Imiquimode (R-837), the control, was also formulated into 0.1 and 1% macrogol ointments.
Seven week-old male BALB/c mice were sensitized by applying 0.2 ml of 0.5% FITC in acetone/dibutyl phthalate (1:1) to the abdomen sheared in advance. Seven days after the sensitization, inflammation was induced by applying 10 μl of 0.5% FITC in acetone/dibutyl phthalate (1:1) to each side of the left auricule (total 20 μl). Before the induction and 24 hr after the induction, the thickness of the auricule was measured with a micrometer. The difference between the two values was taken as the swelling degree. The macrogoal ointment containing the test compound and Rinderon™ ointment (0.12% betamethasonevalerate) were applied to each side of the left auricule in an amount of 5 μl (total 10 μl) 2 hr before the induction. Mice in the placebo group were treated with the macrogol ointment base (PEG400:PEG4000=7:3).
The inflammation inhibitory effect of the ointment of the invention was calculated as an inhibition ratio relative to the swelling degree in the placebo group which was taken as 100%. For example, the inhibition ratios in the groups treated with ointments containing 0.1% and 1% of the compound of Example 59, i.e. 2-butyl-9-(p-fluorobenzyl)-8-hydroxyadenine were 67% and 33%, respectively.

[3] = 3 mg/kg orally 2 hours before OVA i.p.
[4] = 30 mg/kg orally 2 hours before OVA i.p.

melting point [°C]	Structure (SMILES)	IL-4 (interleukin-4 (IL-4); test compound 0.1 μM) [pg/mL]	IL-4 (interleukin-4 (IL-4); test compound 1 μM) [pg/mL]	IL-4 (interleukin-4 (IL-4); test compound 10 μM) [pg/mL]	IL-5 (interleukin-5 (IL-5); test compound 0.1 μM)	IL-5 (interleukin-5 (IL-5); test compound 1 μM)	IL-5 (interleukin-5 (IL-5); test compound 10 μM) [pg/mL]	IFN-γ (interferon-γ (IFN-γ); test compound 0.1 μM) [ng/mL]	IFN-γ (interferon-γ (IFN-γ); test compound 1 μM) [ng/mL]	IFN-γ (interferon-γ (IFN-γ); test compound 10 μM) [ng/mL]	also measured
	C[C@@H]1C[C@H]2[C@@H]3CCC4=CC(=O)C=C[C@]4(C)[C@@]3(F)[C@@H](O)C[C@]2(C)[C@@]1(O)C(=O)CO [Dexamethasone, reference compound]										Ratio of Infiltrating Eosinophiles (BALB/c mice [1]; [3]): 10.27%; Inhibition (BALB/c mice [1]; [3]): 18.9%
278 to 280	Nc1ncnc2c1nc(O)n2Cc1ccccc1 [Example 1, 9-Benzyl-8-Hydroxyadenine]										
222 to 224	CCCCn1c(O)nc2c(N)ncnc21 [Example 3, 9-Butyl-8-Hydroxyadenine]										
270 to 272	Nc1ncnc2c1nc(O)n2Cc1ccc(F)cc1 [Example 4, 9-(4-Fluorobenzyl)-8-Hydroxyadenine]										
287 to 289	CC(C)(C)OC(=O)Oc1nc2c(N)ncnc2n1Cc1ccccc1 [Example 10, 9-Benzyl-8-tert-Butyloxycarbonyloxyadenine]										
227 to 229	Nc1ncnc2c1nc(OC(=O)c1ccccc1)n2Cc1ccccc1 [Example 12, 9-Benzyl-8-Benzoyloxyadenine]										
248 to 250	CCCCCCCC(=O)Oc1nc2c(N)ncnc2n1Cc1ccccc1 [Example 15, 9-Benzyl-8-Octanoyloxyadenine]										
	Cc1nc(N)c2nc(O)n(Cc3ccccc3)c2n1 [Example 17, 9-Benzyl-8-Hydroxy-2-Methyladenine]										Ratio of Infiltrating Eosinophiles (BALB/c mice [1]; [4]): 4.70%; Inhibition (BALB/c mice [1]; [4]): 62.9%
	Cc1nc(N)c2nc(O)n(Cc3cccc(Cl)c3)c2n1 [Example 18, 9-(m-Chlorobenzyl)-8-Hydroxy-2-Methyladenine]	254	<7.8	<7.8	4,150 pg/ml	2,321 pg/ml	710	26	63	181	
	Cc1nc(N)c2nc(S)n(Cc3ccccc3)c2n1 [Example 19, 9-Benzyl-8-Mercapto-2-Methyladenine]	296	29	<7.8	4,482 pg/ml	1,782 pg/ml	643	16	50	139	
	CCCCCc1nc(N)c2nc(O)n(Cc3ccccc3)c2n1 [Example 20, 9-Benzyl-8-Hydroxy-2-Pentyladenine]	20	<7.8	<7.8	1,667 pg/ml	670 pg/mL	524	135	193	219	IL-4 (interleukin-4 (IL-4); test compound 0.01 μM): 208 pg/mL; IL-5 (interleukin-5 (IL-5); test compound 0.01 μM): 3,792 pg/ml; IFN-γ (interferon-γ (IFN-γ); test compound 0.01 μM): 25 ng/mL; Ratio of Infiltrating Eosinophiles (BALB/c mice [1]; [4]): 6.94%; Inhibition (BALB/c mice [1]; [4]): 46.2%
	Nc1nc(C2CCCCC2)nc2c1nc(O)n2Cc1ccccc1 [Example 21, 9-Benzyl-2-Cyclohexyl-8-Hydroxyadenine]	192	11	<7.8	4,103 pg/ml	1,291 pg/ml	715	28	158	170	
	Nc1nc(Cc2ccccc2)nc2c1nc(O)n2Cc1ccccc1 [Example 24, 2,9-Dibenzyl-8-Hydroxyadenine]	195	<7.8	<7.8	3,670 pg/ml	1,130 pg/ml	345	44	199	244	
	CC(C)c1nc(N)c2nc(O)n(Cc3ccccc3)c2n1 [Example 45, 9-Benzyl-8-Hydroxy-2-Isopropyladenine]	86	<7.8	<7.8	2,881 pg/ml	699 pg/mL	563	46	161	187	
	CCCCc1nc(N)c2nc(O)n(Cc3ccc(F)cc3)c2n1 [Example 59, 2-Butyl-9-(p-Fluorobenzyl)-8-Hydroxyadenine]										inhibition ratio relative to the swelling degree in the placebo group (BALB/c mice [2]; 0.1% macrogol ointment): 67%; inhibition ratio relative to the swelling degree in the placebo group (BALB/c mice [2]; 1% macrogol ointment): 33%
	CC(C)Cn1cnc2c(N)nc3ccccc3c21 [Example R-837, 4-amino-1-isobutyl-1H-imidazo[4,5-c]quinoline, reference compound]										inhibition ratio relative to the swelling degree in the placebo group (BALB/c mice [2]; 0.1% macrogol ointment): 50%; inhibition ratio relative to the swelling degree in the placebo group (BALB/c mice [2]; 1% macrogol ointment): 67%

Structure (SMILES)	melting point [°C]	IL-4 (interleukin-4 (IL-4); test compound 0.1 μM) [pg/mL]	IL-4 (interleukin-4 (IL-4); test compound 1 μM) [pg/mL]	IL-4 (interleukin-4 (IL-4); test compound 10 μM) [pg/mL]	IL-5 (interleukin-5 (IL-5); test compound 0.1 μM)	IL-5 (interleukin-5 (IL-5); test compound 1 μM)	IL-5 (interleukin-5 (IL-5); test compound 10 μM) [pg/mL]	IFN-γ (interferon-γ (IFN-γ); test compound 0.1 μM) [ng/mL]	IFN-γ (interferon-γ (IFN-γ); test compound 1 μM) [ng/mL]	IFN-γ (interferon-γ (IFN-γ); test compound 10 μM) [ng/mL]	also measured
CC(=O)Oc1nc2c(N)ncnc2n1Cc1ccccc1 [Example 11, 9-Benzyl-8-Acetoxyadenine]	189 to 191										
